Data on 2 molecules can be found in US8530404B2, “Compounds and methods for treatment of cancer” (FibroGen, Inc., priority 2005, dated 2013).

Assay [1] has as its system H460 tumor cells. Briefly: Subcutaneous H460 lung tumor xenograft, tumor growth delay study in combination with chemotherapeutics (Example 6). The assay is classed as in vivo, mouse. Particulars: Cmpd A 60 mg/kg p.o., paclitaxel 15 mg/kg i.v., carboplatin 120 mg/kg i.p. How it is done:
This study was used to determine the effect of combined treatments where compounds and methods of the invention were combined with conventional anti-tumor therapies. These experiments were performed essentially as described above in Example 3, except that 1×10^7 H460 tumor cells were implanted subcutaneously to the flanks of female Harlan nude animals. The number of animals in each group was 10. Treatments were initiated when tumors reached an average size of approximately 100 mm^3.
The study design was representative of tumor progression studies of the TGD (Tumor Growth Delay) type, using a protocol that required individual animals to be humanely euthanized after reaching a set endpoint of tumor volume greater than or equal to 2 cc.
These two chemotherapeutic agents are of two broad classes of conventional anti-tumor therapeutics: microtubule poisons (paclitaxcel); and DNA-directed agents, including the sub-classification of DNA alkylating agents (carboplatin). In tumor-bearing human patients, conventional anti-tumor therapy commonly use of one or both classes of chemotherapeutic agents.
The study was initiated with administration of conventional anti-tumor treatment or vehicle control, and followed one day after with administration of Compound A or vehicle control. […] (See Table 11 and Table 12 for compound and chemotherapeutic agent dosing schedule.)
Tumor progression was determined for each treatment group and is presented as median Time-to-Endpoint (TTE).

Assay [2] has as its system human H-460-GFP lung tumors. Briefly: Orthotopically implanted human H-460-GFP lung tumor mouse xenograft, survival and metastasis (Example 3). The assay is classed as in vivo. To be noted: 7.5 mg/kg i.v. on days 3, 7, 11. The method, then:
To examine the effect of methods and compounds of the present invention in a metastatic model of tumor progression, compounds of the invention were administered to orthotopically implanted H-460-GFP xenografted animals. Tumor models employing surgical orthotopic implantation (SOI) into the organ of origin of the original tumor are regarded as representative of cancer progression and metastasis in humans. Orthotopic implantation of H-460 increases the rate of tumor metastasis.
This experiment is carried out as described in Example 1 above, with the following modifications. To aid in identification and scoring of metastasis, the human H-460 lung cancer cell line was replaced by genetically-engineered tumors of GFP-transfected H-460 cells. 1-2 mm^3 H460-GFP lung tumor fragments were implanted by surgical orthotopic implantation (SOI) and sutured directly into lung tissue. (Yang et al., (1998) Cancer Res 58:4217-4221.) Dosing was initiated immediately after successful confirmation of tumor take by fluorescent GFP imaging (˜5 days following tumor implantation). Doxorubicin (DOX, 7.5 mg/kg, i.v. administration) was used as a chemotherapy control, and was administered on treatment days 3, 7, and 11.
In addition to weekly caliper measurement of primary tumor size, GFP imaging was performed on animals to monitor primary tumor progression and metastasis, starting the first day of treatment. Study endpoints were reached when an average tumor size of 2 cc or three morbid mice appear in any one group, whichever occurs first, regardless of treatment duration. Each animal was checked daily for mortality or signs of morbidity. Morbid animals were frozen. All animals, including dead animals, were examined by GFP imaging for primary tumor and metastasis at necropsy. Imaging and caliper measurements were used to determine the effects of treatment. Primary tumors were excised, measured and weighed at necropsy. Blood samples were taken during terminal sacrifice and complete blood counts (CBC) and reticulocyte analysis were performed.
Tumor metastasis is associated with increased morbidity and mortality in humans with metastatic cancer and in animal models of metastatic cancer. […] The increased morbidity and mortality were recorded and animals were preserved for subsequent necropsy. The study was terminated after >3 animals were found morbid in the vehicle group on treatment day 14, at which point the remaining animals were sacrificed to evaluate and compare tumor progression in the various treatment groups.
To determine metastatic frequency, the thoracic and abdominal cavities of animals were examined by fluorescent imaging.

Structures are written as SMILES. Marks after values point to notes of the source that are not given here.

With `N.N.O=C([O-])C1(C(=O)[O-])CCC1.[Pt+2]` [carboplatin], in assay [1], the “% TGD, Percent Tumor Growth Delay (vs. Group control)” value is on record as 107% and the “T-C (Test-control, difference of medians)” value stood at 17.3 days. In assay [1] (vehicle group 16.2), the “Median TTE (Time-to-Endpoint, tumor volume >= 2 cc)” value is 33.5 days.

On to `COc1cccc2c1C(=O)c1c(O)c3c(c(O)c1C2=O)C[C@@](O)(C(=O)CO)C[C@@H]3O[C@H]1C[C@H](N)[C@H](O)[C@H](C)O1` [DOX, Doxorubicin, reference compound], for which, in assay [2] (vehicle 9/10), the “Metastatic Incidence (proportion of animals exhibiting mediastinal lymph node metastasis)” value is recorded as 4/10^#. In addition, the “proportion of surviving animals” value in assay [2] (treatment day 9), in assay [2] (treatment day 11), in assay [2] (treatment day 12), in assay [2] (treatment day 13) and in assay [2] (treatment day 14) was 10/10 throughout.
